Results reported in patent US20080280837A1, “Biologically Active Compounds with Anti-Angiogenic Properties” (priority 2004, published 2008).

Columns and labels:
[1] = in vitro; settings: human, Caco-2
Method: The Caco-2 assay was performed according to the procedure described in the following cited article [Caco-2 Monolayers in Experimental and Theoretical Predictions of Drug Transport, Artursson P, Palm K, Luthman K., Adv. Drug Deliv. Rev., 2001, 46, 27-43].

[2] = tested on: MV522 human NSCLC tumour xenograft; assay: Nude mouse model of human MV522 non-small cell lung cancer tumours; type: in vivo, nude mice; settings: group five: paclitaxel 16 mg/kg i.p. qdx5 alone
Method: Initial Maximum Tolerated Dose (MTD) studies were done in male nude mice to determine the appropriate intravenous dosing regimen for the MV522 human NSCLC tumour model. A range of doses between 0 and 50 mg/Kg for 28 days (qdx28) were tested. Mice were randomized into groups with 5 animals per group including vehicle control. Animals were weighed twice weekly starting on day one and observed daily for adverse reactions or toxicity due to the agent. MTD studies determined the selection of 20 mg/kg and 35 mg/kg for intravenous dosing once per day for 28 days in the MV522 human NSCLC tumour xenograft model.
Male nude mice (nu/nu) between 5 and 6 weeks of age weighing approximately 20 g were implanted subcutaneously (s.c) by trocar with fragments of MV522 human tumour carcinomas harvested from s.c growing tumours in host mice. MV-522 is a metastatic human lung adenocarcinoma line. When tumours reached approximately 72 mg in size animals were pair matched into treatment and control groups with 10 mice in each group. Each mouse was tagged and followed individually throughout the experiment.
“Compound 1” was administered i.v. in a saline vehicle from day one. Vehicle control group animals were administered saline i.v. There were nine treatment groups including the vehicle control group. […]
At the end of the treatment period the mice were weighed and sacrificed. Each tumour was excised and weighed and a mean actual tumour weight (mg) per group was calculated along with the mean actual volume (mm^3). […] Mean tumour regression was determined using the formula [1−(mean actual tumour weightFINAL/mean tumour weightDAY 1)×100%].

Papp [1] [×10⁻⁶ cm/s] | SMILES | Tumour growth inhibition (TGI) [2] [%]
0.813 | OC[C@@H](O)[C@@H](O)[C@H](O)[C@H](O)CO [mannitol, reference compound] | –
– | CC(=O)O[C@H]1C(=O)[C@@]2(C)[C@H]([C@H](OC(=O)c3ccccc3)[C@]3(O)C[C@H](OC(=O)[C@H](O)[C@@H](NC(=O)c4ccccc4)c4ccccc4)C(C)=C1C3(C)C)[C@]1(OC(C)=O)CO[C@@H]1C[C@@H]2O [paclitaxel, reference compound] | 42.1
